Results reported in patent US20240109934A1, “ANTIBIOTICS WITH IMPROVED DRUG RESISTANCE PROFILE” (priority 2021, published 2024).
≈ marks a conversion by molar mass, not a printed value. Entries after “also recorded” stand apart in the source; their conditions may differ.

Assays:
[1] = test system: multidrug-resistant clinical isolates of S. aureus; experiment: MIC against multidrug-resistant clinical isolates of S. aureus; assay type: cell-based; conditions: for MIC: Staphylococcus aureus
[2] = Pharmacokinetic assessment in mice; assay type: in vivo, C57BL/6 mice; conditions: female, C57BL/6, mouse, in vivo, ip, 50 mg/kg
Method: FIG. 3. A). Pharmacokinetic analysis of fusidic acid and FA-CP. […] The data are illustrated as the mean and represent the average of three independent experiments. The pharmacokinetic parameters illustrated above were calculated with a one-compartment model using a non-linear regression program (Phoenix WinNonlin Version 8.1, Certara USA Inc. Princeton NJ 08540 USA). B). S. aureus ATCC 29213 neutropenic thigh infection burden study. CD-1 mice were first rendered neutropenic with cyclophosphamide. Mice were injected on (Day-4 to Day-2) with 150 mg/kg and on (Day-1) with 100 mg/kg of cyclophosphamide, respectively. […] C). S. aureus (FA-32×-B) neutropenic thigh infection study. CD-1 mice were first rendered neutropenic with cyclophosphamide as described above. […] Drugs were formulated with 5% DMSO, 10% Tween 20, 85% PBS immediately before injection. The data shown as means±s.d. and statistical significance was determined by one-way ANOVA with Tukey's multiple comparisons. NS indicates not significant (P>0.05), **P<0.01, ****P<0.0001.
Pharmacokinetic Assessment of sodium fusidate and FA-CP (25). […] The compounds were formulated in 5% DMSO, 10% Tween 20, and 85% PBS. Mice were treated with sodium fusidate or FA-CP (25) (50 mg/kg) via intraperitoneal injection with three mice per time point (15, 30, 45, 60, 120, and 240 min). At specific time points, mice were sacrificed, blood was collected and centrifuged, and the serum was frozen at −80° C. until analysis. The proteins in a 10 μL aliquot of serum were precipitated by the addition of 50 μL acetonitrile with the addition of 10 μL of 1.6 ug/mL internal standard (sodium fusidate was the internal standard when measuring FA-CP (25) and FA-CP (25) was the internal standard when measuring sodium fusidate). The sample was then vortexed and centrifuged to remove the proteins. Supernatants were analyzed with the QTRAP 5500 LC/MS/MS system (Sciex) in the Metabolomics Laboratory of the Roy J. Carver Biotechnology center, University of Illinois at Urbana-Champaign. Software Analyst 1.6.2 was used for data acquisition and analysis. The 1200 Series HPLC System (Agilent Technologies) includes a degasser, an autosampler and a binary pump. The liquid chromatography separation was performed on an Agilent Zorbax SB-Aq column (4.6 mm×50 mm; 5 μm) with mobile phase A (0.1% formic acid in water) and mobile phase B (0.1% formic acid in acetonitrile). The flow rate was 0.3 mL/min. The linear gradient was as follows: 0-1 min: 95% A; 8-13 min: 0% A; 8.1-18.5 min: 95% A. The autosampler was set at 10° C. The injection volume was 5 μL. Mass spectra were acquired under negative electrospray ionization with a voltage of −4,500 V. The source temperature was 450° C. The curtain gas, ion source gas 1 and ion source gas 2 were 32, 60 and 60 psi, respectively. […] The limit of quantitation of (S/N=10) was 1 nM. Pharmacokinetic parameters were calculated with a one-compartment model using a nonlinear regression program (Phoenix WinNonlin Version 8.1; Certara USA).

S. aureus (FA-32×-B) = experiment: Neutropenic thigh infection burden study, FA-resistant strain; assay type: in vivo; conditions: neutropenic CD-1 mice, FA-resistant strain (P406L), 50 mg/kg IP at 1, 2, 3 h, burden at 8 h
S. aureus ATCC 29213 [3] = experiment: Resistance frequency, large inoculum method; assay type: cell-based
Method: Selection of Resistant Mutants. Resistant mutants were selected via the large inoculum method. Briefly, S. aureus ATCC 29213 (1×10^9 CFU) were plated on 100 mm plates of LB agar containing 4, 2, 1, 0.5, and 0.25 μg/mL.

Mouse MTD / tolerability = conditions: mice
Method: The protocol was approved by the IACUC at the University of Illinois at Urbana-Champaign (Protocol Number: 16144 and 19181). In these studies, 10- to 12-week-old female C57BL/6 mice purchased from Charles River were used. The maximum tolerated dose (MTD) of single compound was determined first. […] All the mice were monitored for signs of toxicity for 2 weeks. For multiple doses, the compound was given by daily IP for 4 consecutive days, and mice were monitored for signs of toxicity for 1 month. MTD was the highest dosage with acceptable toxicity (e.g., <20% weight loss).

S. aureus ATCC 29213 [4] = experiment: MIC by micro-dilution broth method (CLSI); assay type: cell-based
S. aureus ATCC 29213 [5] = experiment: Neutropenic thigh infection burden study, sensitive strain; assay type: in vivo; conditions: neutropenic CD-1 mice, 50 mg/kg IP at 1, 2, 3 h post infection, burden at 24 h

Question: For `CC(=O)O[C@H]1C[C@@]2(C)[C@@H](C[C@@H](O)[C@H]3[C@@]4(C)CC[C@@H](O)[C@@H](C)[C@@H]4CC[C@@]32C)/C1=C(\CCC=C1CCCC1)C(=O)O` [FA-CP, (Z)-2-((3R,4S,5S,8S,9S,10S,11R,13R,14S,16S)-16-acetoxy-3,11-dihydroxy-4,8,10,14-tetramethylhexadecahydro-17H-cyclopenta[a]phenanthren-17-ylidene)-5-cyclopentylidenepentanoic acid], which Cross-resistance with vancomycin ([1]; 29 clinical isolates of S. aureus) is on record?
Answer: no cross-resistance with vancomycin

Question: What about the MIC ([1]; NRS3, S. aureus NRS3 (NARSA)) of the same compound?
Answer: 0.0625 µg/mL (≈ 0.115 µM)

Question: And the MIC ([1]; NRS4, S. aureus NRS4 (NARSA))?
Answer: 0.0625 µg/mL (≈ 0.115 µM)

Question: What about the MIC ([1]; NRS17, S. aureus NRS17 (NARSA)) of the same compound?
Answer: 0.0625 µg/mL (≈ 0.115 µM)

Question: And the MIC ([1]; NRS18, S. aureus NRS18 (NARSA))?
Answer: 0.125 µg/mL (≈ 0.23 µM)

Question: And the MIC ([1]; NRS21, S. aureus NRS21 (NARSA))?
Answer: 0.0625 µg/mL (≈ 0.115 µM)

Question: What about the MIC ([1]; NRS22, S. aureus NRS22 (NARSA)) of the same compound?
Answer: 0.0625 µg/mL (≈ 0.115 µM)

Question: What about the MIC ([1]; NRS23, S. aureus NRS23 (NARSA)) of the same compound?
Answer: 0.125 µg/mL (≈ 0.23 µM)

Question: And the MIC ([1]; NRS24, S. aureus NRS24 (NARSA))?
Answer: 0.0625 µg/mL (≈ 0.115 µM)

Question: What about the MIC ([1]; NRS26, S. aureus NRS26 (NARSA)) of the same compound?
Answer: 0.0625 µg/mL (≈ 0.115 µM)

Question: And the MIC ([1]; NRS27, S. aureus NRS27 (NARSA))?
Answer: 0.125 µg/mL (≈ 0.23 µM)

Question: And the MIC ([1]; NRS29, S. aureus NRS29 (NARSA))?
Answer: 0.125 µg/mL (≈ 0.23 µM)

Question: And the MIC ([1]; NRS51, S. aureus NRS51 (NARSA))?
Answer: 0.0625 µg/mL (≈ 0.115 µM)

Question: And the MIC ([1]; NRS68, S. aureus NRS68 (NARSA))?
Answer: 0.125 µg/mL (≈ 0.23 µM)

Question: What about the MIC ([1]; NRS73, S. aureus NRS73 (NARSA)) of the same compound?
Answer: 0.125 µg/mL (≈ 0.23 µM)

Question: And the MIC ([1]; NRS74, S. aureus NRS74 (NARSA))?
Answer: 0.125 µg/mL (≈ 0.23 µM)

Question: What about the MIC ([1]; NRS76, S. aureus NRS76 (NARSA)) of the same compound?
Answer: 0.125 µg/mL (≈ 0.23 µM)

Question: What about the MIC ([1]; NRS77, S. aureus NRS77 (NARSA), no noted resistance) of the same compound?
Answer: 0.0625 µg/mL (≈ 0.115 µM)

Question: And the MIC ([1]; NRS382, S. aureus NRS382 (NARSA))?
Answer: 0.0625 µg/mL (≈ 0.115 µM)

Question: And the MIC ([1]; NRS383, S. aureus NRS383 (NARSA))?
Answer: 0.125 µg/mL (≈ 0.23 µM)

Question: And the MIC ([1]; NRS384, S. aureus NRS384 (NARSA))?
Answer: 0.125 µg/mL (≈ 0.23 µM)

Question: And the MIC ([1]; S. aureus AR0561 (CDC))?
Answer: 0.125 µg/mL (≈ 0.23 µM)

Question: And the MIC ([1]; S. aureus AR0562 (CDC))?
Answer: 0.125 µg/mL (≈ 0.23 µM)

Question: And the MIC ([1]; S. aureus AR0563 (CDC))?
Answer: 0.125 µg/mL (≈ 0.23 µM)

Question: What about the MIC ([1]; S. aureus AR0564 (CDC)) of the same compound?
Answer: 0.125 µg/mL (≈ 0.23 µM)

Question: What about the MIC ([1]; S. aureus AR0565 (CDC)) of the same compound?
Answer: 0.0625 µg/mL (≈ 0.115 µM)

Question: And the MIC ([1]; S. aureus AR0566 (CDC))?
Answer: 0.125 µg/mL (≈ 0.23 µM)

Question: What about the MIC ([1]; S. aureus AR0567 (CDC)) of the same compound?
Answer: 0.125 µg/mL (≈ 0.23 µM)

Question: What about the MIC ([1]; S. aureus AR0568 (CDC)) of the same compound?
Answer: 0.125 µg/mL (≈ 0.23 µM)

Question: And the MIC ([1]; S. aureus AR0570 (CDC))?
Answer: 0.125 µg/mL (≈ 0.23 µM)

Question: And the AUC [2]?
Answer: 11700 ng·h/mL

Question: And the CL_F [2]?
Answer: 71.3 mL/min/kg

Question: And the Cmax [2]?
Answer: 9760 ng/mL

Question: And the K10_HL [2]?
Answer: 19.0 min

Question: What about the Tmax [2] of the same compound?
Answer: 26.4 min

Question: What about the “Bacterial burden in thigh” value (S. aureus (FA-32×-B)) of the same compound?
Answer: reductions in bacterial burden; also recorded: in vivo efficacy

Question: And the “Resistance frequency relative to FA” value (S. aureus ATCC 29213 [3]; at 2× and 32× the MIC)?
Answer: modest improvement in resistance frequency

Question: And the “Resistance frequency relative to FA” value (S. aureus ATCC 29213 [3]; head-to-head with FA, 2×-32× the MIC)?
Answer: improvement in resistance frequency relative to FA

Question: What about the Tolerability (Mouse MTD / tolerability; 50 mg/kg IP once-a-day for 4 consecutive days) of the same compound?
Answer: well tolerated

Question: And the Tolerability (Mouse MTD / tolerability; single dose of 50 mg/kg, IP injection)?
Answer: well tolerated

Question: What about the “Antibacterial activity relative to FA” value (S. aureus ATCC 29213 [4]; S. aureus ATCC 29213 MIC) of the same compound?
Answer: equipotent activity to FA

Question: And the MIC (S. aureus ATCC 29213 [4]; Staphylococcus aureus, ATCC29213, read-out: MIC Without Human Serum)?
Answer: 0.125 µg/mL (≈ 0.23 µM)

Question: What about the “Bacterial burden in thigh” value (S. aureus ATCC 29213 [5]) of the same compound?
Answer: Significant reductions in bacterial burden
